The values below come from paper PMC11009276, “Design, synthesis, biological assessment and molecular modeling studies of novel imidazothiazole-thiazolidinone hybrids as potential anticancer and anti-inflammatory agents” (Scientific Reports, 2024).

Experiment [1] concerns carrageenan-induced rat hind paw edema. The experiment is described as follows: Carrageenan-induced rat paw edema inhibition assay. The class given is in vivo. The settings on record: oral 0.0314 mmol/kg, after 4 h. As for the experimental part:
The anti-inflammatory efficacy of the newly synthesised compounds was assessed using a carrageenan-induced rat hind paw edema technique The animals were divided into groups of six at random, fasted for 24 h before to the experiment, and given free access to water. 0.5% CMC solution was given to the control group only. […] One hour after the administration of the test compounds and the reference drug, 0.1 mL of a 1% carrageenan solution in saline was subcutaneously injected into the subplantar area of the right hind paw of each rat. The right hind paw volume was measured using a Digital Plethysmometer PLM-01 Plus (Orchid Scientifics and Innovatives India Pvt. Ltd., Mumbai, India) at 3 and 4 h after carrageenan therapy. The following calculation was used to compute the percent edema inhibition from the mean effect in the treated and control animals: Percent edema inhibition=Vc-Vt/Vc×100 where Vc denotes the mean increase in paw volume in the control group of rats and Vt denotes the mean increase in paw volume in rats treated with test chemicals. After a 15-day washout period, the same group of rats utilised for the anti-inflammatory activity were employed for the ulcerogenic activity.

Experiment [2] relates to carrageenan-induced paw edema inflammation. On the set-up: method as in earlier work. The settings on record: albino rats; ref 50 (Saliyeva et al.); cited from earlier work.

With `O=C(O)Cc1ccccc1Nc1c(Cl)cccc1Cl` [Diclofenac sodium, reference compound], the “% inhibition (paw edema)” value in experiment [1] is 80.32%. In addition, the “% inhibition carrageenan-induced paw edema” value in experiment [2] was 38.8%.
